Experimental data: patent US7999069B2, “EphB receptor-binding peptides” (Sanford-Burnham Medical Research Institute, priority 2005, dated 2011)
No end group written: not given here.

Key:
EphB1 [1] = molecular target: T1, EphB1 (Homo sapiens, UniProt P54762); test: Inhibition of ephrin-B2 AP binding to immobilized EphB1 ectodomain
T1 construct: panned on the ectodomains of EphB1, EphB2, or EphB4 fused to human Fc
T1 sequence (P54762 18-540 limits assumed): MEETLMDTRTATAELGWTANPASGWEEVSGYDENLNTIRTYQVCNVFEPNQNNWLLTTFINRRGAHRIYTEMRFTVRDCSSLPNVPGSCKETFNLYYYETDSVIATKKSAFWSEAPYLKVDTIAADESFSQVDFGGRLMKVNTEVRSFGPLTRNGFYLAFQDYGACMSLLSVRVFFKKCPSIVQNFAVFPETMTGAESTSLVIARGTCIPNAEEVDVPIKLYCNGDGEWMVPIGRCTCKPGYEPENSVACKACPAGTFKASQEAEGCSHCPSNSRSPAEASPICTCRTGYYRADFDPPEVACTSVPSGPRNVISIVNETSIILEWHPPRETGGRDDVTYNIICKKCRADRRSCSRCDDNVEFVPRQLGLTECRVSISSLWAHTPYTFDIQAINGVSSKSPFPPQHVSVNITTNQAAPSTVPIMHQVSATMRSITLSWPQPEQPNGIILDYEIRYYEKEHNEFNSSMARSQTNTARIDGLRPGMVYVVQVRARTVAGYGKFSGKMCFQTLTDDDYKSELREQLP
Procedure: Peptides that bind to the same receptor region as the ephrins would be expected to inhibit Eph receptor-ephrin association, if they interact with sufficient affinity. A number of synthetic peptides were tested for their ability to inhibit binding of alkaline phosphatase-tagged ephrin-B2 (ephrin-B2-AP) to EphB receptors (FIG. 3). Most of the peptides were synthesized with a biotin tag and immobilized on streptavidin plates to verify their ability to capture the EphB ectodomains used for their isolation.
Ephrin-B2 AP binding to the indicated immobilized EphB receptor ectodomains was measured in the presence of the indicated peptides and detected by measuring alkaline phosphatase activity. […]. […] Wells coated with the different EphB ectodomains were incubated with ephrin-B2 AP and 50 μM of the indicated peptides. Ephrin-B2 AP binding in the presence of peptide was normalized to binding in the absence of peptide. All peptides were biotinylated except for FSPQ and EWYM. […] Therefore, IPWT was not used for further experiments. […]
The GP motif aligns with the GP motif of TNYL and the RAW motif aligns precisely next to the last amino acid of TNYL. […] After several washes, the amount of ephrin-B2-AP bound was quantified using p-nitrophenylphosphate as a substrate. […]

EphB receptors = test: Ephrin-B2 AP binding to different EphB ectodomains in presence of peptide (selectivity); settings: 50 μM peptide
Procedure: Ephrin-B2 AP binding to the indicated immobilized EphB receptor ectodomains was measured in the presence of the indicated peptides and detected by measuring alkaline phosphatase activity. […] Wells coated with the different EphB ectodomains were incubated with ephrin-B2 AP and 50 μM of the indicated peptides. Ephrin-B2 AP binding in the presence of peptide was normalized to binding in the absence of peptide. All peptides were biotinylated except for FSPQ and EWYM. […] The EWYM, TWO, and FSPQ peptides were not synthesized with a biotin tag and therefore were tested directly for inhibition of ephrin-B2 binding.
Ephrin-B2 AP was co-incubated for 1 hr with different peptide concentrations in Ni-NTA wells coated with 1 μg/ml Eph receptor Fc. After several washes, the amount of ephrin-B2-AP bound was quantified using p-nitrophenylphosphate as a substrate. Alkaline phosphatase activity from wells without EphB Fc was subtracted as background. […] In these experiments, the two peptides are not biotinylated. […] Ephrin-B2-AP binding in the presence of peptide was normalized to binding in the absence of peptide in (A) and (B).

EphB1 [2] = molecular target: T2, EphB1 (Homo sapiens, UniProt P54762); test: Ephrin-B1 Fc-induced EphB1 tyrosine phosphorylation in human aortic endothelial cells; format: cell-based; settings: concentrations up to 200 μM
T2 construct: endogenous EphB1 tyrosine phosphorylation; endogenous in cells; host or cells: human aortic endothelial cells
T2 sequence (P54762 18-984): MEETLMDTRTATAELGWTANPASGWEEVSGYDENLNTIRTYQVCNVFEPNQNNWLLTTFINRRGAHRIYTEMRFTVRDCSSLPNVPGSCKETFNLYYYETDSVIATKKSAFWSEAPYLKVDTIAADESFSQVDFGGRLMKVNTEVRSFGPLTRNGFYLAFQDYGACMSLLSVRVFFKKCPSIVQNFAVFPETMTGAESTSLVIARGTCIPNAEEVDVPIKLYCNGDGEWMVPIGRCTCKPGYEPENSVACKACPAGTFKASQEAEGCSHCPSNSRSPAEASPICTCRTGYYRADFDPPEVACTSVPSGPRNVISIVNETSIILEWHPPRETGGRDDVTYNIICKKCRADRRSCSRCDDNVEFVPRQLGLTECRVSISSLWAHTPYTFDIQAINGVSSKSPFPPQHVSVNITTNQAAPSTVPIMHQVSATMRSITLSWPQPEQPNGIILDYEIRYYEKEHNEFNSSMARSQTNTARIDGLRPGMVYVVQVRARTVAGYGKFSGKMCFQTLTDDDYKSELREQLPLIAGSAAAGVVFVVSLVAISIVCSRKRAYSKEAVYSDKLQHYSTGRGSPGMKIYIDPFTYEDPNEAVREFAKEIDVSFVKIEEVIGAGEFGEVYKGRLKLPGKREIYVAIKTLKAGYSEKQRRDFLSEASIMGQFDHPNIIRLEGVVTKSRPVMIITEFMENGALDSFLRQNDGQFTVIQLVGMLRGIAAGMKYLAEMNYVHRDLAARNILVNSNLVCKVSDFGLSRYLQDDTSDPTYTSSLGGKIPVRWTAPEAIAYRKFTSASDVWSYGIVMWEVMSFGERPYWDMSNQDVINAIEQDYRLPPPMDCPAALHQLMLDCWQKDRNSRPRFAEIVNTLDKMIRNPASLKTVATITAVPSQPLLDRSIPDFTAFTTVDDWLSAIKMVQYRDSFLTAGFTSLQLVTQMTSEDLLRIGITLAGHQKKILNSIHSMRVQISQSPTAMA

Sequence: EWLSPNLAPSVR [SEQ ID NO 1]
- Inhibition of ephrin-B2 AP binding to EphB1 (in words) (EphB1 [1]): inhibited ephrin binding to EphB1
- Selectivity of antagonism of ephrin-B2 AP binding across EphB ectodomains (EphB receptors): selective
- Inhibition of endogenous EphB1 tyrosine phosphorylation (EphB1 [2]): did not inhibit endogenous EphB1 tyrosine phosphorylation
